Measurements reported in US6448475B1, “Manipulation of tocopherol levels in transgenic plants by transformation with a synechocystis 2-methyl-6-phytylplastoquinol/2-methyl-6-solanylplastoquinol-9 methyltransferase” (The University and Community College System of Nevada, priority 1998, dated 2002).

Legend:
[1] = In vitro 2-methyl-6-phytylplastoquinol methyltransferase assay of E. coli expressed SLL0418; type: biochemical, Synechocystis; conditions: E. coli extract
Text: (§1) A second approach to characterizing the Synechocystis genes and proteins involved in tocopherol biosynthesis involved the expression and biochemical analysis of these genes in E. coli. The Synechocystis SLL0418 gene sequence was subcloned from pSLL0418-1 as a Nde1/Hind3 fragment into the Nde1 and Hind3 sites of the E. coli expression vector, pET30B. The resulting plasmid construct was designated p041798 and was transformed into the E. coli strain BL21(DE3)pLysS. Protein expression was induced with 1 mM isopropylthio-b-galactoside (IPTG) in the cells transformed with p041798 and cells transformed with the empty pET30B vector. Induced cultures were grown for 3 hours at 28° C. in a shaking incubator after which the cells were harvested by centrifugation at 8,000 g for 10 minutes at 4° C. and stored at […] The cell pellets were resuspended in 50 mM Tris-HCl pH 8.0, 5 mM DTT, 1 mM PMSF and homogenized with four 10 second burst with a sonicator. Triton X 100 was then added to a final concentration of 1% and the mixture was incubated on ice for 30 minutes. The insoluble material was then removed by centrifugation at 40,000 g for 30 minutes and the supernatant was saved for methyltransferase assays.
A mixture of 6 different isomers of methylphytylplastoquinone was synthesized as described by Henry et al. (1987) Biochem J 242: 367-373. […]

[2] = In vitro 2-methyl-6-solanylplastoquinol methyltransferase assay of E. coli expressed SLL0418; type: biochemical, Synechocystis; conditions: E. coli extract
Text: as §1
The 2-methyl-6-solanylplastoquinol substrate was purified from Iris bulbs. One hundred gm of iris bulbs were homogenized in 500 mL acetone. […]

2-methyl-6-phytylplastoquinol/2-methyl-6-solanylplastoquinol-9 methyltransferase [SLL0418]
methylation of 2-methyl-6-phytylplastoquinol to form 2,3-dimethylphytlyplastoquinol ([1]; result in words): able to methylate | amount of 14C labeled 2,3-dimethyl-6-phytylplastoquinol product produced ([1]; substrate 2-methyl-6-phytylplastoquinol, [14C-methyl]-S-adenosylmethionine, 30 minutes, room temperature): 484 CPM | methylation of 2-methyl-6-solanylplastoquinol to form 2,3-dimethylsolanylplastoquinol ([2]; result in words): able to methylate | amount of 14C labeled 2,3-dimethylsolanylplastoquinol product produced ([2]; substrate 2-methyl-6-solanylplastoquinol, [14C-methyl]-S-adenosylmethionine, 30 minutes, room temperature): 174 CPM
